US8491891B2, “Human beta-glucuronidase mutants with elevated enzymatic activity under physiological conditions and method for identifying such” (Academia Sinica, priority 2008, dated 2013)

How the values were obtained:
[1] = Intratumoral concentrations of CPT-11, SN-38 and SN-38G after CPT-11 treatment (SPE-HPLC)
Procedure: Tumors were collected 2, 8 and 24 h after CPT treatment, immediately dispersed in ice-cold acidic methanol (methanol: water: perchloric acid=20:20:1), and homogenized 60 sec on an Ultraturax tissue homogenizer at 20,000 rpm. The samples were clarified by centrifugation at 15,000 g for 5 min at 4° C. Supernatants were diluted with 0.1 M KH2PO4 and then separated by SPE-HPLC on a μBondapack column with 27% acetonitrile in 0.1 M potassium phosphate buffer pH=2.6. […] These three analytes were quantified by comparison with standard curves generated with analyte concentrations ranging from 2.0 pg to 200 ng.

EJ tumor xenografts = experiment: Anti-tumor effect of CPT-11 on EJ xenografts; type: in vivo, Beige-SCID mice; conditions: EJ tumors, dose of 10 mg/kg, i.v. on two consecutive days
Procedure: (§1) Three to four month old Beige-SCID female mice were used in this study. The mice were maintained under SPF conditions and were fed a standard laboratory diet with free access to food and water, under artificial circadian rhythm. EJ or EJ/mβG cells were injected into the mice subcutaneously in their right flank to form tumor xenografts.

EJ/mβG tumor xenografts = experiment: Anti-tumor effect of CPT-11 on EJ/mβG xenografts; type: in vivo, Beige-SCID mice; conditions: EJ/mβG tumors, dose of 10 mg/kg, i.v. on two consecutive days
Procedure: as §1

[2] = Serum concentrations of CPT-11, SN-38 and SN-38G after CPT-11 administration
[3] = tested on: EJ human bladder carcinoma cells; experiment: Sensitivity of EJ cells to CPT-11, SN-38, SN-38G (3H-thymidine incorporation); conditions: read-out: IC50 (cytotoxicity), 24 h exposure, pH not stated
EJ/mβG cells = experiment: Sensitivity of EJ/mβG cells to CPT-11, SN-38, SN-38G (3H-thymidine incorporation); conditions: read-out: IC50 (cytotoxicity); EJ/mβG cells, 24 h exposure, pH not stated
[4] = Relative activity of membrane-tethered human β-glucuronidase variants on 3T3 cells by flow cytometry (FL4/FL1); type: cell-based; conditions: membrane-tethered enzyme, pH 7.0, substrate ELF97 β-D-glucuronide
Procedure: The 3T3 cell libraries mentioned above were screened by FACS analysis for cells that express human β-glucuronidase variants with elevated enzymatic activity. 10^7 3T3 cells expressing membrane-bound human β-glucuronidase variants were washed and suspended in 0.4 ml BSA/HBSS (5.4 mM KCl, 0.3 mM Na2HPO4, 0.4 mM KH2PO4, 4.2 mM NaHCO3, 1.3 mM CaCl2, 0.5 mM MgCl2, 0.6 mM MgSO4, 137 mM NaCl, 5.6 mM D-glucose, pH 7.4) containing 0.5% bovine serum albumin (BSA) and 20 μg/ml 7G8-FITC for 30 min at 4° C. Cells were then washed and incubated with 25, 50 or 100 μM ELF97 β-D-glucuronide at defined pH values in 50 mM Bis-Tris, 25 mM glucose, 85.6 mM NaCl, 5.4 mM KCl, 0.6 mM MgSO4, 1.3 mM CaCl2) at 37° C. for 10 min. The cells were washed with ice-cold 0.5% BSA/HBSS and suspended in 0.5% BSA/HBSS containing 5 μg/ml propidium iodide (Sigma). Cells were then sorted on a FACSVantage DiVa (Becton, Dickinson and Company, Franklin Lakes, N.J.) equipped with an Enterprise IIC argon laser for dual excitation at 488 and 351-364 nm. Dead cells (propidium iodide positive, high FL3 fluorescence) were gated out before 7G8-FITC immunofluorescence was detected at excitation/emission wavelengths of 488/515 nm (FL1) and ELF97 was detected at excitation/emission wavelengths of 351/530 nm (FL4). […] The sorted cells were cultured for 4-10 days for sequential rounds of cell sorting or RNA extraction. Flow cytometer data was analyzed using Flowjo (Tree star, Ashland, Oreg.).
Independent 3T3 clones (5×10^7) in library EP2 mentioned above were immunofluorescence stained with 7G8-FITC and reacted with ELF97 β-D-glucuronide at pH 7.0. Sixteen individual cell clones were isolated after three rounds of sorting and the human β-glucuronidase genes were sequenced. […] Table 1 below lists amino acid substitutions in five exemplary variants and their relative enzymatic activities.

[5] = Kinetic values (Km, kcat) of soluble recombinant human β-glucuronidase and variants; type: biochemical
Procedure: Recombinant His-tagged wild-type human β-glucuronidase and its variants (soluble) were produced in and purified from stable 3T3 fibroblast lines, following the method described above also the method described in Wu et al., Biotechnol Appl Biochem 40:167-172 (2004).
The pH-dependent enzyme activities of the above-mentioned recombinant human beta-glucuronidase and variants were measured in triplicate with 0.1 mM ELF97 β-D-glucuronide at 37° C. for 30 minutes at a defined pH ranging from 3-10 in a beta-glucuronidase reaction buffer (50 mM Bis-Tris, 50 mM triethanol amine, 100 mM acetic acid, 0.1% BSA). The reaction was quenched by adding an equal volume of a stop buffer (2 M Tris-HCl, 0.8 M sodium bicarbonate, pH 8). The fluorescence of ELF97 was measured in a Gemini EM microplate spectrofluorometer (Molecular Device, Sunnyvale, Calif.) at excitation/emission wavelengths of 355/555 nm. Kinetic values for human beta-glucuronidase substrate hydrolysis were determined by diluting ELF97 β-D-glucuronide (2 mM) in a pH 4.5 or pH 7.0 beta-glucuronidase reaction buffer 1:1 with defined concentrations of human beta-glucuronidase in 200 μl. Fluorescence was immediately measured under thermal control at 37° C. for 8-10 min. The measurement was repeated using the same amount of enzyme at different substrate concentrations in an optimal range. The acquired readings were converted to product concentration based on preestablished standard curves. Double reciprocal plots were used to determine Km and kcat. Kinetic assays were performed at least 3 times and mean values were calculated. The stability of recombinant human beta-glucuronidase variants was carried out by measuring their enzymatic activity at time 0 and again after incubating 5 μg purified enzymes in PBS (containing 0.5 mg/ml BSA) at 37° C. for 14 days. The enzymatic activities of the human beta-glucuronidase variants were measured in triplicate with 0.5 mM 4-methylumbelliferyl β-D-glucuronide at 37° C. for 15 minutes at pH 7.0 in β-glucuronidase reaction buffer. The reaction was terminated by adding an equal volume of a stop buffer (1 M glycine, 0.5 M sodium bicarbonate, pH 11) and the fluorescence was measured at excitation/emission wavelengths of 355/460 nm in a microplate spectrofluorometer.

[6] = tested on: EJ human bladder cancer cells; experiment: Prodrug activation of HAMG by enzyme, 3H-thymidine incorporation; type: cell-based; conditions: 10 μM HAMG
Procedure: (§2) The prodrug activation activity of the human beta-glucuronidase variants was determined as follows. EJ human bladder cancer cells were incubated with graded concentrations (see FIGS. 3B and 3C) of human β-glucuronidase variants in RPMI (pH 6.8) containing either 10 μM HAMG or 100 nM SN-38G for 24 hours. The cells were further incubated for 24 hours in fresh medium before incorporation of ^3H-thymidine into cellular DNA was measured following the procedure described below.
(§3) Purified recombinant human beta-glucuronidase and its variants with defined concentrations were mixed with 10 μM HAMG or 100 nM SN-38G and the mixture was added to 5000 EJ human bladder cancer cells in 200 μl complete medium at pH 6.8 for 24 h. The cells were washed and incubated in fresh medium for 24 h and then pulsed for 16 h with ^3H-thymidine (1 μCi/well). The cells were harvested and the radioactivity was measured in a TopCount Microplate Scintillation Counter (Packard, Meriden, Conn.). Results are expressed as percent inhibition of ^3H-thymidine incorporation into cellular DNA in comparison to untreated cells.

[7] = tested on: EJ human bladder cancer cells; experiment: Prodrug activation of SN-38G by enzyme, 3H-thymidine incorporation; type: cell-based; conditions: 100 nM SN-38G
Procedure: as §2, §3

[8] = Beta-glucuronidase activity of fusion proteins at pH 7.0; type: biochemical; conditions: pH 7.0, 0.5 mM substrate, 30 minutes, 37° C.
Procedure: Next, the beta-glucuronidase activity of the fusion proteins was measured by adding 0.5 mM 4-methylumbelliferyl β-D-glucuronide in a beta-glucuronidase reaction buffer (50 mM Bis-Tris, 50 mM triethanol amine, 100 mM acetic acid, 100 ng/ml bovine serum albumin, pH 7.0) for 30 minutes at 37° C. The reaction was terminated by adding an equal volume of stop buffer (1 M glycine, 0.5 M sodium bicarbonate, pH 11). The fluorescence of 4-MU was measured at excitation/emission wavelengths of 355/460 nm in a Gemini EM microplate spectrofluorometer (Molecular Device, Sunnyvale, Calif.). […] See also FIG. 9.

[9] = 24 h after CPT-11 10 mg/kg i.v.

With `CCc1c2c(nc3ccc(OC(=O)N4CCC(N5CCCCC5)CC4)cc13)-c1cc3c(c(=O)n1C2)COC(=O)[C@]3(O)CC` [CPT-11] the “Intratumoral concentrations in EJ versus EJ/mβG tumors” value ([1]; 2, 8 and 24 h) was “identical”, the “Concentration in EJ xenografts” value ([1]; 2 h after CPT-11 10 mg/kg i.v.) was 1350 ± 200 ng drug/g tumor and the “Concentration in EJ/mβG xenografts” value ([1]; 2 h after CPT-11 10 mg/kg i.v.) was 1500 ± 230 ng drug/g tumor. The “Concentration in EJ xenografts” value ([1]; 8 h after CPT-11 10 mg/kg i.v.) was 87 ± 17 ng drug/g tumor, the “Concentration in EJ/mβG xenografts” value ([1]; 8 h after CPT-11 10 mg/kg i.v.) was 77 ± 178 ng drug/g tumor and the “Concentration in EJ xenografts” value [1, 9] was 0.58 ± 0.09 ng drug/g tumor. For the same molecule, the “Concentration in EJ/mβG xenografts” value [1, 9] was 0.63 ± 0.11 ng drug/g tumor, the “Delay of tumor growth” value (EJ tumor xenografts) was “did not significantly delay” and the “Delay of tumor growth” value (EJ/mβG tumor xenografts) was “significantly delayed”. For the same molecule, the “Serum levels in mice bearing EJ versus EJ/mβG tumor” value ([2]; 2 h after CPT-11 administration) was “similar”, the “Serum concentrations in mice bearing EJ versus EJ/mβG tumor” value ([2]; 8 h or 24 h after CPT-11 administration) was “no significant differences” and the IC50 [3] was about 2100 nM. It also gave an IC50 (EJ/mβG cells) of about 2100 nM.

B1: S2: human beta-glucuronidase variant V159M, T545S, E595L, T599L, SEQ ID NO: 8 (protein)
chain: AAQPALQGGMLYPQESPSRECKELDGLWSFRADFSDNRRRGFEEQWYRRPLWESGPTVDMPVPSSFNDISQDWRLRHFVGWVWYEREVILPERWTQDLRTRVVLRIGSAHSYAIVWVNGVDTLEHEGGYLPFEADISNLVQMGPLPSRLRITIAINNTLTPTTLPPGTIQYLTDTSKYPKGYFVQNTYFDFFNYAGLQRSVLLYTTPTTYIDDITVTTSVEQDSGLVNYQISVKGSNLFKLEVRLLDAENKVVANGTGTQGQLKVPGVSLWWPYLMHERPAYLYSLEVQLTAQTSLGPVSDFYTLPVGIRTVAVTKSQFLINGKPFYFHGVNKHEDADIRGKGFDWPLLVKDFNLLRWLGANAFRTSHYPYAEEVMQMCDRYGIVVIDECPGVGLALPQFFNNVSLHHHMQVMEEVVRRDKNHPAVVMWSVANEPASHLESAGYYLKMVIAHTKSLDPSRPVTFVSNSNYAADKGAPYVDVICLNSYYSWYHDYGHLELIQLQLATQFENWYKKYQKPIIQSEYGAESIAGFHQDPPLMFTEEYQKSLLEQYHLGLDQKRRKYVVGELIWNFADFMTLQSPLRVLGNKKGIFTRQRQPKSAAFLLRERYWKIANETRYPHSVAKSQCLENSPFTSVD
modifications: Laboratory generated variant, S2, based upon the human beta-glucuronidase
In the case of B1, the “Relative activity (FL4/FL1 normalized to wild-type human β-glucuronidase)” value [4] is reported as 65, the Km ([5]; pH 4.5, 37° C.) is reported as 8.1 ± 0.8 µM and the kcat ([5]; pH 4.5, 37° C.) is reported as 107 ± 7 s⁻¹. For the same molecule, the Km ([5]; pH 7.0, 37° C.) was 35 ± 3 µM, the kcat ([5]; pH 7.0, 37° C.) was 42 ± 4 s⁻¹ and the “kcat/Km at pH 7.0, fold greater than kcat/Km of wild type at pH 4.5” value ([5]; variant at pH 7.0 vs wild type at pH 4.5) was “about 2 fold”. The “Fold more effective than wild type (HAMG activation)” value ([6]; pH 6.8) was 9 fold, the “EC50 of enzyme for killing of EJ cells with HAMG” value ([6]; pH 6.8, 24 h) was 2.7 µg/mL and the “Fold improvement in prodrug activation over wild type (SN-38G)” value ([7]; pH 6.8) was 11 fold. For the same molecule, the “EC50 of enzyme for killing of EJ cells with SN-38G” value ([7]; pH 6.8, 24 h) was 0.0084 µg/mL and the “Enzymatic activity compared with wild-type hβG” value [8] was “significantly greater”.
